In ChEMBL document CHEMBL1133981, “Synthesis of a reported calpain inhibitor isolated from Streptomyces griseus” (Bioorg Med Chem Lett, 2001):
Activity calls are given as the source filed them. No cut-off for these calls is given here.

Columns and labels:
[1] = target: T1, Calpain-1 catalytic subunit (Homo sapiens, UniProt P07384); experiment: Compound was tested for its inhibitory activity against calpain […]
T1 sequence (P07384 whole entry): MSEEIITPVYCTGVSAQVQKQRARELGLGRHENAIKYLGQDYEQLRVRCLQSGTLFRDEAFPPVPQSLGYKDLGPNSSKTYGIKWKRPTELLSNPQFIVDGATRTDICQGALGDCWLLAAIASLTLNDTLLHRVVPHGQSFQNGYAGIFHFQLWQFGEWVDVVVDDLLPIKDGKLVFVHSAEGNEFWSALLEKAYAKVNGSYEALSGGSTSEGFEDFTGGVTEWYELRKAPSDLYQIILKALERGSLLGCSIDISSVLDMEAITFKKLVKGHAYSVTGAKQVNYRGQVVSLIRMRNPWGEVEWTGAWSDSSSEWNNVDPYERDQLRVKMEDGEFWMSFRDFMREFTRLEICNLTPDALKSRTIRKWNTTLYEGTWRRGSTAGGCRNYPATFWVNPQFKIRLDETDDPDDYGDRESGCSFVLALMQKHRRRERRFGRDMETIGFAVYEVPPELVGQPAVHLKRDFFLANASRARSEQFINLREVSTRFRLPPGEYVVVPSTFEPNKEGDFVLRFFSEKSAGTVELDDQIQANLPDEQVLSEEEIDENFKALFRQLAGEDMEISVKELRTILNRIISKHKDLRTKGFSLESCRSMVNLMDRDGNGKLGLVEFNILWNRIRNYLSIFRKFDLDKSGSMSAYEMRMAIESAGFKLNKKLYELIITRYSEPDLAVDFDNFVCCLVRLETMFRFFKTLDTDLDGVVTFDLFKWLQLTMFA

[2] = target: T2, Calpain small subunit 1 (Sus scrofa) (UniProt P04574); experiment: Compound was tested for its inhibitory activity against porcine erythrocyte Calpain 1 up to a concentration of 1 mM; NA=Not active
T2 sequence (whole entry): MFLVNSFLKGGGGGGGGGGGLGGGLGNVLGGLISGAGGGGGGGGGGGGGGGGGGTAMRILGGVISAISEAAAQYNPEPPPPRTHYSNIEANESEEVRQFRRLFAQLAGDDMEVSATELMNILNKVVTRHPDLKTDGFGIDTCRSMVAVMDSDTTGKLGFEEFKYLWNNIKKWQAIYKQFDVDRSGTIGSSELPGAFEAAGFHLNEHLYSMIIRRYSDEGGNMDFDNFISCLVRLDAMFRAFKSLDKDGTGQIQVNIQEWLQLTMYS

[3] = target: T1, Calpain-1 catalytic subunit; experiment: Compound was tested for its inhibitory activity against calpain […] (SC488)

| SMILES | IC50 [1] [µM] | Activity [2] | IC50 [3] [µM] |
| --- | --- | --- | --- |
| CC(C)c1ncc(Cc2ccccc2)[nH]c1=O | 1.2 | – | – |
| CN1C(=O)[C@H](Cc2ccccc2)N(C)C(=O)[C@H]1Cc1ccccc1 | – | inactive | – |
| CN1C(=O)[C@H](Cc2ccc(O)cc2)N(C)C(=O)[C@@H]1Cc1ccc(O)cc1 | – | inactive | 0.8 |
| CN1C(=O)[C@H](Cc2ccccc2)N(C)C(=O)[C@@H]1Cc1ccccc1 | – | inactive | – |
